Results from the NIST ThermoML archive (doi:10.1016/j.jct.2007.04.005).

Assay: xn = mol fraction of the nth substance listed
Settings: 318.15 K, Liquid

CCCCCCCCC [nonane] + C1CCCCC1
Settings	mass density [kg/m3]
100 kPa, x2 = 0	698.2
100 kPa, x2 = 0.09303	701
100 kPa, x2 = 0.2009	704.8
100 kPa, x2 = 0.3051	708.8
100 kPa, x2 = 0.417	713.5
100 kPa, x2 = 0.512	718
100 kPa, x2 = 0.5996	722.8
100 kPa, x2 = 0.7052	729.3
100 kPa, x2 = 0.7993	736.2
100 kPa, x2 = 0.9039	744.9
101 kPa, x2 = 0	698.48
101 kPa, x2 = 0.1022	701.67
101 kPa, x2 = 0.1548	703.43
101 kPa, x2 = 0.2009	705.04
101 kPa, x2 = 0.2591	707.2
101 kPa, x2 = 0.3306	710.05
101 kPa, x2 = 0.4003	713.04
101 kPa, x2 = 0.4596	715.79
101 kPa, x2 = 0.5321	719.42
101 kPa, x2 = 0.612	723.86
101 kPa, x2 = 0.6649	727.05
101 kPa, x2 = 0.7224	730.84
101 kPa, x2 = 0.8047	736.83
101 kPa, x2 = 0.8686	742.07
101 kPa, x2 = 0.9405	748.72
2130 kPa, x2 = 0	699.9
2130 kPa, x2 = 0.09303	702.7
2130 kPa, x2 = 0.2009	706.5
2130 kPa, x2 = 0.3051	710.6
2130 kPa, x2 = 0.417	715.2
2130 kPa, x2 = 0.512	719.8
2130 kPa, x2 = 0.5996	724.6
2130 kPa, x2 = 0.7052	731.1
2130 kPa, x2 = 0.7993	738
2130 kPa, x2 = 0.9039	746.7
4150 kPa, x2 = 0	701.8
4150 kPa, x2 = 0.09303	704.7
4150 kPa, x2 = 0.2009	708.4
4150 kPa, x2 = 0.3051	712.5
4150 kPa, x2 = 0.417	717.2
4150 kPa, x2 = 0.512	721.7
4150 kPa, x2 = 0.5996	726.6
4150 kPa, x2 = 0.7052	733.1
4150 kPa, x2 = 0.7993	740
4150 kPa, x2 = 0.9039	748.7
6180 kPa, x2 = 0	703.6
6180 kPa, x2 = 0.09303	706.4
6180 kPa, x2 = 0.2009	710.2
6180 kPa, x2 = 0.3051	714.3
6180 kPa, x2 = 0.417	719
6180 kPa, x2 = 0.512	723.6
6180 kPa, x2 = 0.5996	728.4
6180 kPa, x2 = 0.7052	734.9
6180 kPa, x2 = 0.7993	741.8
6180 kPa, x2 = 0.9039	750.6
8210 kPa, x2 = 0	705.3
8210 kPa, x2 = 0.09303	708.2
8210 kPa, x2 = 0.2009	712
8210 kPa, x2 = 0.3051	716.1
8210 kPa, x2 = 0.417	720.7
8210 kPa, x2 = 0.512	725.3
8210 kPa, x2 = 0.5996	730.2
8210 kPa, x2 = 0.7052	736.7
8210 kPa, x2 = 0.7993	743.6
8210 kPa, x2 = 0.9039	752.4
10230 kPa, x2 = 0	707
10230 kPa, x2 = 0.09303	709.9
10230 kPa, x2 = 0.2009	713.7
10230 kPa, x2 = 0.3051	717.8
10230 kPa, x2 = 0.417	722.5
10230 kPa, x2 = 0.512	727
10230 kPa, x2 = 0.5996	731.9
10230 kPa, x2 = 0.7052	738.5
10230 kPa, x2 = 0.7993	745.4
10230 kPa, x2 = 0.9039	754.2
11250 kPa, x2 = 0	707.8
11250 kPa, x2 = 0.09303	710.7
11250 kPa, x2 = 0.2009	714.5
11250 kPa, x2 = 0.3051	718.6
11250 kPa, x2 = 0.417	723.3
11250 kPa, x2 = 0.512	727.9
11250 kPa, x2 = 0.5996	732.8
11250 kPa, x2 = 0.7052	739.4
11250 kPa, x2 = 0.7993	746.3
11250 kPa, x2 = 0.9039	755.1
12260 kPa, x2 = 0	708.6
12260 kPa, x2 = 0.09303	711.6
12260 kPa, x2 = 0.2009	715.4
12260 kPa, x2 = 0.3051	719.5
12260 kPa, x2 = 0.417	724.2
12260 kPa, x2 = 0.512	728.8
12260 kPa, x2 = 0.5996	733.7
12260 kPa, x2 = 0.7052	740.3
12260 kPa, x2 = 0.7993	747.1
12260 kPa, x2 = 0.9039	756
14290 kPa, x2 = 0	710.3
14290 kPa, x2 = 0.09303	713.2
14290 kPa, x2 = 0.2009	717
14290 kPa, x2 = 0.3051	721.1
14290 kPa, x2 = 0.417	725.8
14290 kPa, x2 = 0.512	730.4
14290 kPa, x2 = 0.5996	735.3
14290 kPa, x2 = 0.7052	741.9
14290 kPa, x2 = 0.7993	748.9
14290 kPa, x2 = 0.9039	757.7
16310 kPa, x2 = 0	711.9
16310 kPa, x2 = 0.09303	714.8
16310 kPa, x2 = 0.2009	718.7
16310 kPa, x2 = 0.3051	722.7
16310 kPa, x2 = 0.417	727.5
16310 kPa, x2 = 0.512	732
16310 kPa, x2 = 0.5996	737
16310 kPa, x2 = 0.7052	743.6
16310 kPa, x2 = 0.7993	750.5
16310 kPa, x2 = 0.9039	759.4
18340 kPa, x2 = 0	713.5
18340 kPa, x2 = 0.09303	716.4
18340 kPa, x2 = 0.2009	720.2
18340 kPa, x2 = 0.3051	724.3
18340 kPa, x2 = 0.417	729.1
18340 kPa, x2 = 0.512	733.6
18340 kPa, x2 = 0.5996	738.6
18340 kPa, x2 = 0.7052	745.3
18340 kPa, x2 = 0.7993	752.1
18340 kPa, x2 = 0.9039	761.1
20370 kPa, x2 = 0	715
20370 kPa, x2 = 0.09303	717.9
20370 kPa, x2 = 0.2009	721.8
20370 kPa, x2 = 0.3051	725.9
20370 kPa, x2 = 0.417	730.6
20370 kPa, x2 = 0.512	735.2
20370 kPa, x2 = 0.5996	740.2
20370 kPa, x2 = 0.7052	746.9
20370 kPa, x2 = 0.7993	753.7
20370 kPa, x2 = 0.9039	762.7
22390 kPa, x2 = 0	716.5
22390 kPa, x2 = 0.09303	719.4
22390 kPa, x2 = 0.2009	723.3
22390 kPa, x2 = 0.3051	727.4
22390 kPa, x2 = 0.417	732.2
22390 kPa, x2 = 0.512	736.7
22390 kPa, x2 = 0.5996	741.8
22390 kPa, x2 = 0.7052	748.4
22390 kPa, x2 = 0.7993	755.3
22390 kPa, x2 = 0.9039	764.3
24420 kPa, x2 = 0	717.9
24420 kPa, x2 = 0.09303	720.8
24420 kPa, x2 = 0.2009	724.8
24420 kPa, x2 = 0.3051	728.8
24420 kPa, x2 = 0.417	733.6
24420 kPa, x2 = 0.512	738.2
24420 kPa, x2 = 0.5996	743.3
24420 kPa, x2 = 0.7052	749.9
24420 kPa, x2 = 0.7993	756.8
24420 kPa, x2 = 0.9039	765.8
26450 kPa, x2 = 0	719.4
26450 kPa, x2 = 0.09303	722.3
26450 kPa, x2 = 0.2009	726.2
26450 kPa, x2 = 0.3051	730.3
26450 kPa, x2 = 0.417	735.1
26450 kPa, x2 = 0.512	739.7
26450 kPa, x2 = 0.5996	744.8
26450 kPa, x2 = 0.7052	751.4
26450 kPa, x2 = 0.7993	758.3
26450 kPa, x2 = 0.9039	767.4
28470 kPa, x2 = 0	720.8
28470 kPa, x2 = 0.09303	723.6
28470 kPa, x2 = 0.2009	727.6
28470 kPa, x2 = 0.3051	731.7
28470 kPa, x2 = 0.417	736.5
28470 kPa, x2 = 0.512	741.1
28470 kPa, x2 = 0.5996	746.2
28470 kPa, x2 = 0.7052	752.9
28470 kPa, x2 = 0.7993	759.8
28470 kPa, x2 = 0.9039	768.9
29490 kPa, x2 = 0	721.4
29490 kPa, x2 = 0.09303	724.3
29490 kPa, x2 = 0.2009	728.3
29490 kPa, x2 = 0.3051	732.4
29490 kPa, x2 = 0.417	737.2
29490 kPa, x2 = 0.512	741.8
29490 kPa, x2 = 0.5996	746.9
29490 kPa, x2 = 0.7052	753.6
29490 kPa, x2 = 0.7993	760.5
29490 kPa, x2 = 0.9039	769.6
30500 kPa, x2 = 0	722.1
30500 kPa, x2 = 0.09303	725
30500 kPa, x2 = 0.2009	729
30500 kPa, x2 = 0.3051	733.1
30500 kPa, x2 = 0.417	737.9
30500 kPa, x2 = 0.512	742.5
30500 kPa, x2 = 0.5996	747.6
30500 kPa, x2 = 0.7052	754.3
30500 kPa, x2 = 0.7993	761.2
30500 kPa, x2 = 0.9039	770.3
32530 kPa, x2 = 0	723.4
32530 kPa, x2 = 0.09303	726.4
32530 kPa, x2 = 0.2009	730.4
32530 kPa, x2 = 0.3051	734.4
32530 kPa, x2 = 0.417	739.3
32530 kPa, x2 = 0.512	743.8
32530 kPa, x2 = 0.5996	749
32530 kPa, x2 = 0.7052	755.7
32530 kPa, x2 = 0.7993	762.6
32530 kPa, x2 = 0.9039	771.7
34550 kPa, x2 = 0	724.8
34550 kPa, x2 = 0.09303	727.7
34550 kPa, x2 = 0.2009	731.8
34550 kPa, x2 = 0.3051	735.8
34550 kPa, x2 = 0.417	740.6
34550 kPa, x2 = 0.512	745.2
34550 kPa, x2 = 0.5996	750.4
34550 kPa, x2 = 0.7052	757.1
34550 kPa, x2 = 0.7993	764
34550 kPa, x2 = 0.9039	773.2
36580 kPa, x2 = 0	726.1
36580 kPa, x2 = 0.09303	729
36580 kPa, x2 = 0.2009	733.1
36580 kPa, x2 = 0.3051	737.1
36580 kPa, x2 = 0.417	742
36580 kPa, x2 = 0.512	746.6
36580 kPa, x2 = 0.5996	751.7
36580 kPa, x2 = 0.7052	758.5
36580 kPa, x2 = 0.7993	765.4
36580 kPa, x2 = 0.9039	774.5
38600 kPa, x2 = 0	727.5
38600 kPa, x2 = 0.09303	730.4
38600 kPa, x2 = 0.2009	734.5
38600 kPa, x2 = 0.3051	738.5
38600 kPa, x2 = 0.417	743.3
38600 kPa, x2 = 0.512	748
38600 kPa, x2 = 0.5996	753.1
38600 kPa, x2 = 0.7052	759.9
38600 kPa, x2 = 0.7993	766.8
38600 kPa, x2 = 0.9039	776
39620 kPa, x2 = 0	728.1
39620 kPa, x2 = 0.09303	731
39620 kPa, x2 = 0.2009	735.1
39620 kPa, x2 = 0.3051	739.1
39620 kPa, x2 = 0.417	744
39620 kPa, x2 = 0.512	748.6
39620 kPa, x2 = 0.5996	753.8
39620 kPa, x2 = 0.7052	760.6
39620 kPa, x2 = 0.7993	767.5
39620 kPa, x2 = 0.9039	776.7
